In patent US11180496B2 (Daewoong Pharmaceutical Co., Ltd., priority 2017, dated 2021):

Legend:
ITK = target: T1, ITK (Homo sapiens, UniProt Q08881); assay: ITK inhibitory activity, ADP-Glo + ITK Kinase enzyme system kit (Promega); assay type: biochemical; conditions: ITK enzyme 0.4 ng/uL, ATP 25 uM, 15 min preincubation, luminescence, duplicate
T1 construct: purchased Promega
T1 sequence (Q08881 1-620): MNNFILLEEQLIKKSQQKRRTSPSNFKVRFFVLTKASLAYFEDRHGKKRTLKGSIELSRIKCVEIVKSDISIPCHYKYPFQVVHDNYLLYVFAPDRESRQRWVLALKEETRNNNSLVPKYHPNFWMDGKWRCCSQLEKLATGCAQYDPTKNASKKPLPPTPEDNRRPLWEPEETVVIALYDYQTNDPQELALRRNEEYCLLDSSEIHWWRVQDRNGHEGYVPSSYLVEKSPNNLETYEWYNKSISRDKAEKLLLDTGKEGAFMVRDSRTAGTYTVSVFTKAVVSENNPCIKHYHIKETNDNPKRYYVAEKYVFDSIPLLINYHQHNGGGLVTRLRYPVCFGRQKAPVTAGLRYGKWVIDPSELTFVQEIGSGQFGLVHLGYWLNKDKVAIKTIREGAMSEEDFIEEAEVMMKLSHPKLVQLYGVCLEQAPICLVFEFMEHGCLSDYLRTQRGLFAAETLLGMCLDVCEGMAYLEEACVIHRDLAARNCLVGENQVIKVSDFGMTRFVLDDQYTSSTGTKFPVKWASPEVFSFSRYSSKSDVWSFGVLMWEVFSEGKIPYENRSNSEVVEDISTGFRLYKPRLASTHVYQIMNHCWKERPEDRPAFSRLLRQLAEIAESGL
Method: (§1) The inhibitory activity against BTK and ITK of the compounds prepared in Examples above were measured as follows.
(§2) The inhibitory activity against ITK was evaluated using ‘ADP-Glo™+ITK Kinase enzyme system’ kit from Promega. […] 5 uL of substrate and 5 uL of ATP prepared at a final concentration of 25 uM were added to all wells of the plate after completion of the reaction, and allowed to react at 30° C. for 1 hour. All wells of the plate after completion of the reaction were treated with 25 uL of ADP-Glo™ reagent and reacted at 30° C. for 40 minutes. Then, 50 uL of the kinase detection buffer was applied to all wells of the plate, and then the light was blocked and reacted at 30° C. for 30 minutes. For the plate for which all reactions were completed, the luminescence was measured and the results were calculated. The evaluation was performed in duplicate. The respective values of negative and positive controls, depending on whether the enzymes were added without treatment of the compound, were determined, and IC50 was calculated based on the values.

BTK = target: T2, BTK (Homo sapiens, UniProt Q06187); assay: BTK inhibitory activity, ADP-Glo + BTK Kinase enzyme system kit (Promega); assay type: biochemical; conditions: BTK enzyme 1 ng/uL, ATP 10 uM, 15 min preincubation, luminescence, duplicate
T2 construct: purchased Promega
Method: as §1
as §2, with “against BTK” for “against ITK”, “using ‘ADP-Glo™+BTK” for “using ‘ADP-Glo™+ITK”, “of 10” for “of 25”

T2 sequence (Q06187 whole entry): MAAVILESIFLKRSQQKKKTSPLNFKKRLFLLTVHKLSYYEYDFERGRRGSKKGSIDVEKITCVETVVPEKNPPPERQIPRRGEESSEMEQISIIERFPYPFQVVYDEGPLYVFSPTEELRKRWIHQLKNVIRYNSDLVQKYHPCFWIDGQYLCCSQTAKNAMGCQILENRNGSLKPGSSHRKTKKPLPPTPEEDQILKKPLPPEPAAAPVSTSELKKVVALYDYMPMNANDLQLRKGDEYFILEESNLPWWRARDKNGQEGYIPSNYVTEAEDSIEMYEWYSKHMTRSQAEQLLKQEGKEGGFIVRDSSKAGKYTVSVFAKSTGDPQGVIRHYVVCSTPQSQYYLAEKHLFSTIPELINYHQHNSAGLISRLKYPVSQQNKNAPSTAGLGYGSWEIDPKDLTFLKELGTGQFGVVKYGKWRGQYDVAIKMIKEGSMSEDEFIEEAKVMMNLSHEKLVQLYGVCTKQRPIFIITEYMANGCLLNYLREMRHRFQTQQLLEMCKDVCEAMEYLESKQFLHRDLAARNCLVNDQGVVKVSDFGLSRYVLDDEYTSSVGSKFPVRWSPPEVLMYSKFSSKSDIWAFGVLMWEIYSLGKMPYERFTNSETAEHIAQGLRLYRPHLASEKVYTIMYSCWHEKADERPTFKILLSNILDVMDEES

Compound	IC50 (ITK) [nM]	IC50 (BTK) [nM]
C=CC(=O)N1CC(n2nc(-c3ccc(C(=O)Nc4ccccn4)cc3Cl)c3c(N)ncc(Cl)c32)C1 [Example 64, 4-(1-(1-acryloylazetidin-3-yl)-4-amino-7-chloro-1H-pyrazolo[4,3-c]pyridin-3-yl)-3-chloro-N-(pyridin-2-yl)benzamide]	22.5	1.1
C=CC(=O)N1CCC[C@@H](n2nc(-c3ccc(C(=O)Nc4ccccn4)cc3Cl)c3c(N)ncc(CC)c32)C1 [Example 68, (R)-4-(1-(1-acryloylpiperidin-3-yl)-4-amino-7-ethyl-1H-pyrazolo[4,3-c]pyridin-3-yl)-3-chloro-N-(pyridin-2-yl)benzamide]	1.7	0.9
C=CC(=O)N1CCC[C@@H](n2nc(-c3ccc(C(=O)N(C(=O)C=C)c4cc(F)ccn4)cc3)c3c(N)nccc32)C1 [Example 42, (R)—N-acryloyl-4-(1-(1-acryloylpiperidin-3-yl)-4-amino-1H-pyrazolo[4,3-c]pyridin-3-yl)-N-(4-fluoropyridin-2-yl)benzamide]	241	66.3
C=CC(=O)N1CCC[C@@H](n2nc(-c3ccc(C(=O)Nc4ccccn4)cc3Cl)c3c(N)nccc32)C1 [Example 56, (R)-4-(1-(1-acryloylpiperidin-3-yl)-4-amino-1H-pyrazolo[4,3-c]pyridin-3-yl)-3-chloro-N-(pyridin-2-yl)benzamide]	0.6	0.4
C=CC(=O)N1CCC[C@@H](n2nc(-c3ccc(C(=O)Nc4ccccn4)cc3Cl)c3c(N)ncc(Cl)c32)C1 [Example 58, (R)-4-(1-(1-acryloylpiperidin-3-yl)-4-amino-7-chloro-1H-pyrazolo[4,3-c]pyridin-3-yl)-3-chloro-N-(pyridin-2-yl)benzamide]	9.3	8.8
C=CC(=O)N1CCC[C@@H](n2nc(C(=O)Nc3ccc4c(c3)OCCO4)c3c(N)ncc(Cl)c32)C1 [Example 79, (R)-1-(1-acryloylpiperidin-3-yl)-4-amino-7-chloro-N-(2,3-di hydrobenzo[b][1,4]dioxin-6-yl)-1H-pyrazolo[4,3-c]pyridine-3-carboxamide]	54.9	100
C=CC(=O)N1CC(n2nc(-c3ccc(C(=O)Nc4ccccn4)cc3Cl)c3c(N)nccc32)C1 [Example 63, 4-(1-(1-acryloylazetidin-3-yl)-4-amino-1H-pyrazolo[4,3-c]pyridin-3-yl)-3-chloro-N-(pyridin-2-yl)benzamide]	30.1	3.1
C=CC(=O)N1CCC[C@@H](n2nc(-c3ccc(C(=O)Nc4ccccn4)cc3)c3c(N)ncc(Cl)c32)C1 [Example 19, (R)-4-(1-(1-acryloylpiperidin-3-yl)-4-amino-7-chloro-1H-pyrazolo[4,3-c]pyridin-3-yl)-N-(pyridin-2-yl)benzamide]	7.8	1.7
C=CC(=O)N1CCC[C@@H](n2nc(-c3ccc(C(=O)Nc4ccccc4)cc3)c3c(N)ncc(-c4cnn(CCN5CCCC5)c4)c32)C1 [Example 37, (R)-4-(1-(1-acryloylpiperidin-3-yl)-4-amino-7-(1-(2-(pyrrolidin-1-yl)ethyl)-1H-pyrazol-4-yl)-1H-pyrazolo[4,3-c]pyridin-3-yl)-N-phenyl benzamide]	91.3	3
C=CC(=O)N1CC[C@H](n2nc(-c3ccc(C(=O)Nc4ccccc4)cc3)c3c(N)ncc(-c4cnn(C(F)F)c4)c32)C1 [Example 46, (S)-4-(1-(1-acryloylpyrrolidin-3-yl)-4-amino-7-(1-(difluoromethyl)-1H-pyrazol-4-yl)-1H-pyrazolo[4,3-c]pyridin-3-yl)-N-phenylbenzamide]	> 1000	> 400
C=CC(=O)N1CCC[C@@H](n2nc(-c3ccc(C(=O)Nc4ccccn4)cc3Cl)c3c(N)ncc(I)c32)C1 [Example 65, (R)-4-(1-(1-acryloylpiperidin-3-yl)-4-amino-7-iodo-1H-pyrazolo[4,3-c]pyridin-3-yl)-3-chloro-N-(pyridin-2-yl)benzamide]	1.3	0.4
C=CC(=O)N1CCC(n2nc(-c3ccc(Oc4ccccc4)cc3)c3c(N)ncc(-c4cnn(C)c4)c32)CC1 [Example 13, 1-(4-(4-amino-7-(1-methyl-1H-pyrazol-4-yl)-3-(4-phenoxyphenyl)-1H-pyrazolo[4,3-c]pyridin-1-yl)piperidin-1-yl)prop-2-en-1-one]	> 1000	5.1
C=CC(=O)N1CCC[C@@H](n2nc(-c3ccc(C(=O)Nc4ccccc4)cc3)c3c(N)nccc32)C1 [Example 22, (R)-4-(1-(1-acryloylpiperidin-3-yl)-4-amino-1H-pyrazolo[4,3-c]pyridin-3-yl)-N-phenyl benzamide]	131	2.5
C=CC(=O)N1CCC[C@@H](n2nc(-c3ccc(C(=O)Nc4ccccn4)cc3)c3c(N)ncc(Br)c32)C1 [Example 20, (R)-4-(1-(1-acryloylpiperidin-3-yl)-4-amino-7-bromo-1H-pyrazolo[4,3-c]pyridin-3-yl)-N-(pyridin-2-yl)benzamide]	> 1000	15.2
C=CC(=O)N1CCC[C@@H](n2nc(-c3ccc(Oc4ccccc4)cc3)c3c(N)ncc(I)c32)C1 [Example 16, (R)-1-(3-(4-amino-7-iodo-3-(4-phenoxyphenyl)-1H-pyrazolo[4,3-c]pyridin-1-yl)piperidin-1-yl)prop-2-en-1-one]	2.7	1
C=CC(=O)N1CCC[C@@H](n2nc(-c3ccc(C(=O)Nc4ccccc4)cc3)c3c(N)ncc(C)c32)C1 [Example 44, (R)-4-(1-(1-acryloylpiperidin-3-yl)-4-amino-7-methyl-1H-pyrazolo[4,3-c]pyridin-3-yl)-N-phenyl benzamide]	105	> 1.56
C=CC(=O)N1CCC[C@@H](n2nc(-c3ccc(C(=O)Nc4cc(F)ccn4)cc3)c3c(N)nccc32)C1 [Example 41, (R)-4-(1-(1-acryloylpiperidin-3-yl)-4-amino-1H-pyrazolo[4,3-c]pyridin-3-yl)-N-(4-fluoropyridin-2-yl)benzamide]	10.1	1.5
C=CC(=O)N1CCC[C@@H](n2nc(-c3ccc(C(=O)Nc4ccccc4)cc3)c3c(N)ncc(-c4ccsc4)c32)C1 [Example 31, (R)-4-(1-(1-acryloylpiperidin-3-yl)-4-amino-7-(thiophen-3-yl)-1H-pyrazolo[4,3-c]pyridin-3-yl)-N-phenylbenzamide]	376	15.9
C=CC(=O)N1CCC[C@@H](n2nc(-c3ccc(C(=O)Nc4ccccn4)cc3)c3c(N)ncc(Nc4ccccc4)c32)C1 [Example 43, (R)-4-(1-(1-acryloylpiperidin-3-yl)-4-amino-7-(phenylamino)-1H-pyrazolo[4,3-c]pyridin-3-yl)-N-(pyridin-2-yl)benzamide]	146	2.5
C=CC(=O)N1CC2CC1C(n1nc(-c3ccc(Oc4ccccc4)cc3)c3c(N)ncc(-c4cnn(C)c4)c31)C2 (centres unmarked) [Example 8, 1-(6-(4-amino-7-(1-methyl-1H-pyrazol-4-yl)-3-(4-phenoxyphenyl)-1H-pyrazolo[4,3-c]pyridin-1-yl)-2-azabicyclo[2.2.1]heptan-2-yl)prop-2-en-1-one]	> 500	7.3
C=CC(=O)N1CCC[C@@H](n2nc(-c3ccc(C(=O)Nc4ccccn4)cc3)c3c(N)nccc32)C1 [Example 18, (R)-4-(1-(1-acryloylpiperidin-3-yl)-4-amino-1H-pyrazolo[4,3-c]pyridin-3-yl)-N-(pyridin-2-yl)benzamide]	26.4	1
C=CC(=O)N1CCC[C@@H](n2nc(-c3ccc(C(=O)Nc4ccccn4)cc3F)c3c(N)ncc(C#N)c32)C1 [Example 53, (R)-4-(1-(1-acryloylpiperidin-3-yl)-4-amino-7-cyano-1H-pyrazolo[4,3-c]pyridin-3-yl)-3-fluoro-N-(pyridin-2-yl)benzamide]	4.3	0.5
